Assay results as given in PubChem BioAssay (NCI).
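Method: 48-hour compound exposure of cells in 96-well plates, five concentrations, linear interpolation of endpoints. GI50 is the concentration that inhibits growth by half. TGI marks complete inhibition of growth.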

Columns and labels:
Test in all cases: NCI-60 cell line screen, 48 h
DU-145 prostate = tested on: DU-145 prostate
HCT-116 colon = tested on: HCT-116 colon
IGROV1 ovarian = tested on: IGROV1 ovarian
M14 melanoma = tested on: M14 melanoma
NCI-H460 lung = tested on: NCI-H460 lung
RXF 393 renal = tested on: RXF 393 renal
SF-295 CNS = tested on: SF-295 CNS
SN12C renal = tested on: SN12C renal
SW-620 colon = tested on: SW-620 colon
U251 CNS = tested on: U251 CNS

| SMILES | TGI (DU-145 prostate) [µM] | TGI (HCT-116 colon) [µM] | TGI (IGROV1 ovarian) [µM] | TGI (M14 melanoma) [µM] | TGI (NCI-H460 lung) [µM] | TGI (RXF 393 renal) [µM] | TGI (SF-295 CNS) [µM] | TGI (SN12C renal) [µM] | TGI (SW-620 colon) [µM] | TGI (U251 CNS) [µM] | GI50 (DU-145 prostate) [µM] | GI50 (HCT-116 colon) [µM] | GI50 (IGROV1 ovarian) [µM] | GI50 (M14 melanoma) [µM] | GI50 (NCI-H460 lung) [µM] | GI50 (RXF 393 renal) [µM] | GI50 (SF-295 CNS) [µM] | GI50 (SN12C renal) [µM] | GI50 (SW-620 colon) [µM] | GI50 (U251 CNS) [µM] |
| --- | --- | --- | --- | --- | --- | --- | --- | --- | --- | --- | --- | --- | --- | --- | --- | --- | --- | --- | --- | --- |
| Cc1c(O)c2ccccc2oc1=O | > 100 | > 100 | > 100 | > 100 | > 100 | > 100 | > 100 | > 100 | > 100 | > 100 |  |  |  |  |  |  |  |  |  |  |
| Nc1c(C(=O)c2ccc(-c3cccnc3)cc2)cnn1-c1ccc(F)cc1 | > 25 | > 25 | > 25 | > 25 | > 25 | > 25 | > 25 | > 25 | > 25 | > 25 | > 25 | > 14 | 24.3 | > 25 | > 14.2 | 14.5 | > 25 | > 19.5 | > 22.4 | > 15.2 |
| O=C(c1ccco1)c1nc2cc(C(F)(F)F)ccc2nc1C(F)(F)F | > 100 | > 100 | > 100 | > 100 | > 100 | > 100 | > 100 | > 100 | > 100 | > 100 | > 100 | > 100 | > 100 | > 100 | > 100 | > 100 | > 100 | > 100 | > 100 | > 100 |
| CCOC(=O)c1ccc(Nc2sc(C(=O)c3ccc(Br)cc3)c(N)c2C#N)cc1 | > 100 | > 100 | > 100 | > 100 | > 100 | > 100 | > 100 | > 100 | > 100 | > 100 | 1.8 | 0.732 |  | 1.27 | 0.924 | 1.78 | 0.478 | 4.12 | 0.584 | 1.49 |
| CN1CCC(COc2cnc(-c3cccc(Cn4nc(-c5cccc(C#N)c5)ccc4=O)c3)nc2)CC1 | 30.5 | 6.35 | 25.2 | 3.64 | 12.3 | 3.08 | 16.5 | 19.6 | 31.3 | 7.68 | 4.76 | 2.41 | 6.8 | 1.96 | 3.58 | 1.49 | 0.771 | 6.89 | 3.55 | 2.43 |
| C=C(C)[C@@H]1CC[C@]2(COCCC#N)CC[C@]3(C)[C@H](CC[C@@H]4[C@@](C)(CCCNCCC#N)[C@H](C(=C)C)CC[C@]43C)[C@@H]12 | > 50 | 13.8 | > 50 | > 50 | > 50 | 14.5 | > 50 | 29.2 | 31.2 | 47.1 | 21.6 | 7.25 | 13.1 | 14.7 | 13.2 | 7.44 | > 50 | 10 | 11.5 | 13.9 |
| O=C1CC[C@H](N2C(=O)c3cccc4c(Cc5ccc(CN6CCOCC6)cc5)ccc2c34)C(=O)N1 | > 100 | > 100 | > 100 | > 100 | > 100 | > 100 | > 100 | > 100 | > 100 | > 100 | > 100 | 33.6 | > 100 | 62 | 35.2 | 2.45 | 19.3 | 63.4 | > 100 | 60.3 |
| Cc1cccc(-c2[nH]ncc2-c2ccc3ncccc3n2)n1 | > 25 | > 25 | > 25 | > 25 | > 25 | 12.7 | > 25 | > 25 | > 25 | > 25 | 12.8 | 7.78 | 13 | 10.8 | 8.76 | 5.87 | 13.7 | 9.64 | 9.88 | 9.54 |
| Cc1ccc(NC(=O)c2ccc(CN3CCN(C)CC3)cc2)cc1Nc1nccc(-c2cccnc2)n1 | 55.6 | 42.6 | 45.7 | 35.7 | 37.1 | 33.3 | 38.3 | > 100 | 54.7 | 45.1 | 19.7 | 13.2 | 20.5 | 19.1 | 16.8 | 14.2 | 17.8 | 30.7 | 24.3 | 17.7 |
| CC[C@H](NC(=O)[C@H]1CCCCN1C)C(=O)N(C)[C@H](C[C@@H](OC(C)=O)c1nc(C(=O)N[C@@H](Cc2ccccc2)C[C@H](C)C(=O)O)cs1)C(C)C | > 4.64 | > 14.3 | > 14.3 | 0.00969 | > 14.3 | > 14.3 | > 6.44 | > 14.3 | > 14.3 | > 14.3 | 0.00425 | 0.00366 | 0.0145 | 0.00244 | 0.00436 | 0.00391 | 0.00456 | 0.00993 | 0.00398 | 0.0047 |
| C=C(C)C1CC/C(C)=C/CCC2(C)OC2CC/C(CO)=C\C1O (centres undefined) | > 100 | > 100 | > 100 | > 100 | > 100 | > 100 | > 100 | > 100 | > 100 | > 100 |  |  |  |  |  |  |  |  |  |  |
| NS(=O)(=O)OCC1OC(n2cnc3cncnc32)C(O)C1O (centres undefined) | 0.132 | 0.033 | 0.304 | 0.0944 | 0.0762 | 0.065 | 0.12 | 0.0369 | 0.155 | 0.0749 | 0.0178 | 0.0157 | 0.0541 | 0.03 | 0.024 | 0.0235 | 0.0279 | < 0.01 | 0.0167 | 0.022 |
| COc1ccc(C(=O)Nc2ncc(Cc3cccc(Cl)c3)s2)cc1OC | > 100 | > 100 | > 100 | > 100 | > 100 | 6.54 | 3.64 | > 100 | > 100 | > 100 | 1.88 | 0.0769 | 0.525 | 0.0371 | 0.0611 | 1.07 | 0.0607 | 1.33 | 0.0567 | 0.505 |
| Nc1ccccc1NC(=O)c1ccc(CNc2nccc(-c3cccnc3)n2)cc1 | > 100 | > 100 | > 27.7 | 4.18 | 97 | 3.01 | > 100 | > 72.8 | > 100 |  | 1.45 | 0.362 | 2.36 | 1.03 | 1.15 | 0.878 | 0.722 | 2.34 | 0.518 | 1.12 |
| CCOC(=O)c1ccccc1OC(=O)NNc1ccccc1 | > 100 | > 100 | > 100 | > 100 | > 100 | > 100 | > 37.4 | > 100 | > 100 | > 100 | > 48.5 | 1.69 | 33.9 |  | 0.442 | > 100 | 0.333 | 34.9 | 12.4 | > 35.6 |
| COc1ccc(/C=C(/C(=O)N2CCN(c3ccccc3)CC2)c2cc(OC)c(OC)c(OC)c2)cc1N | > 100 | > 100 | > 100 | 3.58 | > 100 | > 100 | > 100 | > 100 | > 100 | > 100 | 0.531 | 0.356 | 0.697 | 0.254 | 0.364 | 0.272 | 0.342 | 0.643 | 0.401 | 0.361 |
| C[C@]12CC[C@@H]3c4cc(OC(F)F)c(O)cc4CC[C@H]3[C@@H]1CC[C@@H]2OS(N)(=O)=O | > 100 | 18.9 | > 100 | 25.9 | 15.4 | 6.42 | 3.02 | 70.5 | > 100 | 19.5 | 1.55 | 0.419 | 0.687 | 0.511 | 0.422 | 0.315 | 0.33 | 1.02 | 0.417 | 0.549 |
| COC1=CC(c2ccc[nH]2)=N/C1=C\c1[nH]c(C)c(CC(=O)OCc2ccccc2)c1CCC(=O)OCc1ccccc1 | 12.1 | 1.04 | 2.55 | 0.573 | 13.1 | 2.19 | 1.3 |  | 2.43 | 1.68 | 0.438 | 0.233 | 0.4 | 0.223 | 0.399 | 0.423 | 0.305 |  | 0.345 | 0.345 |
| CCC(CC)c1nc(Nc2ccc(C(=O)OC)cc2)c2ccccc2n1 | > 31.1 | > 28.6 | 28.5 | 21.6 | > 50 | 21.3 | > 26 | 16.3 | > 27.7 | 19 | > 22.7 | 12.9 | 11.6 | 10 | 19.9 | 8.34 | > 18.8 | 7.83 | 12.7 | 8.5 |
| NC1=CC(=O)c2cccnc2C1=O | 2.97 | 3.36 | 3.29 | 3.24 | 3.25 | 3.2 | 3.1 | 2.94 | 3.57 | 2.83 | 1.58 | 1.45 | 1.28 | 1.7 | 1.23 | 1.67 | 1.62 | 1.49 | 1.56 | 1.46 |
| CCOC(=O)[C@@H](C)C[C@H](Cc1ccccc1)NC(=O)c1nc([C@@H](C[C@H](C(C)C)N(C)C(=O)[C@@H](NC(=O)[C@H]2CCCCN2C)C(C)C)OC(C)=O)sc1CCOCc1ccccc1 | 1.08 | 1.23 | 2.81 | 0.727 | 1.4 | 1.53 | 1.36 | 1.55 | > 6.6 | 1.62 | 0.0404 | 0.0473 | 0.0995 | 0.0689 | 0.0425 | 0.0657 | 0.0499 | 0.0706 | 0.064 | 0.0716 |
| COC(=O)[C@@H](C)C[C@H](Cc1cn(C)c2ccccc12)NC(=O)c1csc([C@@H](C[C@H](C(C)C)N(C)C(=O)[C@@H](NC(=O)[C@H]2CCCCN2C)C(C)C)OC(C)=O)n1 |  | > 16.7 | > 16.7 | 0.645 | > 6.11 | > 16.7 | > 16.7 | > 16.7 | > 16.7 | > 16.7 | 0.00811 | 0.00707 | 0.0289 | 0.0121 | 0.0101 | 0.023 | 0.024 | 0.0232 | 0.0083 | 0.0102 |
| CCN(CC)CCNc1ccc(C)c2sc3cc(Cl)ccc3c(=O)c12 | 3.17 | 3.15 | 4.05 | 3.4 | 3.54 | 3.05 | 3.16 | 3.44 | 3.6 | 3.22 | 1.78 | 1.65 | 1.83 | 1.8 | 1.87 | 1.57 | 1.67 | 1.68 | 1.86 | 1.73 |
| Cn1cc(C2=C(c3ccccc3[N+](=O)[O-])C(=O)NC2=O)c2ccccc21 | > 25 | > 25 | > 19.5 | > 20.9 | > 25 | 7.19 | > 25 | > 25 | > 20 | > 25 | 6.13 | 1.38 | 6.9 | 6.32 | 4.85 | 1.61 | 1.44 | 4.98 | 3.97 | 1.77 |
